Measured values reported in ChEMBL document CHEMBL5137017, “Identification of NVP-CLR457 as an Orally Bioavailable Non-CNS-Penetrant pan-Class IA Phosphoinositol-3-Kinase Inhibitor” (J Med Chem, 2022).
Several values for one entry are separate records, joined by “and”; a condition that tells them apart may be missing. Identical values can stand only once.

Legend:
[1] = target: T1, Serine/threonine-protein kinase mTOR (Homo sapiens, UniProt P42345); test: Displacement of Alexa Fluor labelled Tracer-314 from human N-terminal GST-tagged mTOR incubated for 1 hr by TR-FRET assay
cells = details: Rattus norvegicus, Rat1, 1 h
[2] = 1-octanol, logP of the compound at pH 7.4; format: physicochemical
[3] = Brain to blood ratio in OF1 mouse at 1 mg/kg, iv measured at 5 mins post dose by LC-MS/MS analysis; format: ADME, organism-based; details: brain and blood, read-out: BBR
Tubulin (Homo sapiens) [4] = target: T2, Tubulin (Homo sapiens) (UniProt P68371+Q9H4B7+P0DPH7+P68366+Q13509+Q71U36+P04350+Q3ZCM7+P07437+P68363+Q9BQE3+Q6PEY2+Q13885+Q9BVA1+Q9BUF5); test: Binding affinity to tubulin in human A2058 cells assessed as condensed DNA score at 5 uM measured after 24 hrs by DiffQuick staining based microscopic analysis; format: cell-based
Tubulin (Homo sapiens) [5] = target: T2, Tubulin (Homo sapiens); test: Binding affinity to tubulin in human A2058 cells assessed as condensed DNA score at 5 uM measured after 6 hrs by DiffQuick staining based microscopic analysis; format: cell-based
[6] = Brain to blood ratio in OF1 mouse at 1 mg/kg, iv measured at 1 hr post dose by LC-MS/MS analysis; format: ADME, organism-based; details: brain and blood, read-out: BBR
[7] = target: T1, Serine/threonine-protein kinase mTOR; test: Binding affinity to human N-terminal GST-tagged mTOR assessed as phosphorylated 4EBP1 by TR-FRET assay
[8] = Drug concentration in OF1 mouse blood at 1 mg/kg, iv measured at 5 mins post dose by LC-MS/MS analysis; format: ADME, organism-based; details: whole blood, read-out: Ct
[9] = Half life in Sprague-Dawley rat at 3 mg/kg, po or iv measured upto 24 hrs by LC-MS/MS analysis; format: ADME, organism-based; details: in vivo
[10] = Stability in human liver microsomes assessed as hepatic extraction preincubated for 3 mins followed by NADPH addition and measured after 60 mins; format: ADME, Microsome; details: read-out: ERH
[11] = Volume of distribution at steady state in Sprague-Dawley rat at 3 mg/kg, po or iv measured upto 24 hrs by LC-MS/MS analysis; format: ADME, organism-based; details: in vivo
[12] = Drug concentration in OF1 mouse blood at 1 mg/kg, iv measured at 1 hr post dose by LC-MS/MS analysis; format: ADME, organism-based; details: whole blood, read-out: Ct
[13] = Stability in rat liver microsomes assessed as hepatic extraction preincubated for 3 mins followed by NADPH addition and measured after 60 mins; format: ADME, Microsome; details: read-out: ERH
[14] = AUC in Sprague-Dawley rat at 1 mg/kg, iv measured for 0.083 to 48 hrs by LC-MS/MS analysis; format: ADME, organism-based; design: time upper 48 hrs, dose 1 mg/kg, time lower 0.083 hrs, route iv; details: in vivo
[15] = Drug concentration in OF1 mouse brain at 1 mg/kg, iv measured at 5 mins post dose by LC-MS/MS analysis; format: ADME, organism-based; details: in vivo
[16] = Oral bioavailability in Sprague-Dawley rat at 3 mg/kg measured for 0.25 to 24 hrs by LC-MS/MS analysis; format: ADME, organism-based; details: in vivo, time 0.25-24 hrs
[17] = Stability in mouse liver microsomes assessed as hepatic extraction preincubated for 3 mins followed by NADPH addition and measured after 60 mins; format: ADME, Microsome; details: time 63 min, read-out: ERH
[18] = Drug concentration in OF1 mouse brain at 1 mg/kg, iv measured at 1 hr post dose by LC-MS/MS analysis; format: ADME, organism-based; details: in vivo

## Nc1cc(C(F)(F)F)c(-c2cc(N3CCCC3=O)nc(N3CCOCC3)n2)cn1
[1]
  IC50: 4.97 µM
cells
  IC50: 0.267 µM
[2]
  logD: 2.1

## Nc1ncc(-c2cc(N3CCOCC3)nc(N3C[C@H](CO)OC3=O)n2)c(C(F)(F)F)n1
[1]
  IC50: 2.18 µM
cells
  IC50: 0.111 µM

## COc1ccc2c(c1)OCCN2c1cc(-c2cnc(N)nc2)nc(N2CCOCC2)n1
[3]
  Kp at 5 min: 3.23
Tubulin (Homo sapiens) [4]
  Activity: 6%
Tubulin (Homo sapiens) [5]
  Activity: > 12%
cells
  IC50: 0.239 µM
[6]
  Kp at 1 h: 1.91
[7]
  IC50: > 9.1 µM

## CNC(=O)N(CCO)c1cc(-c2cnc(N)cc2C(F)(F)F)nc(N2CCOCC2)n1
[3]
  Kp at 5 min: 0.23
cells
  IC50: 3.66 µM
[6]
  Kp at 1 h: 0.12

## Nc1cc(C(F)(F)F)c(-c2cc(N3CCOC3=O)nc(N3CCOCC3)n2)cn1
[1]
  IC50: 6.8 µM
cells
  IC50: 1.07 µM
[2]
  logD: 2.7

## Cn1c(=O)n(-c2ccc(C(C)(C)C#N)cc2)c2c3cc(-c4cnc5ccccc5c4)ccc3ncc21 [DACTOLISIB]
Tubulin (Homo sapiens) [4]
  Activity: < 2%
Tubulin (Homo sapiens) [5]
  Activity: < 2%
cells
  IC50: 0.014 µM

## CS(=O)(=O)N1CCN(Cc2cc3nc(-c4cccc5[nH]ncc45)nc(N4CCOCC4)c3s2)CC1 [PICTILISIB]
Tubulin (Homo sapiens) [4]
  Activity: < 2%
Tubulin (Homo sapiens) [5]
  Activity: < 2%
cells
  IC50: 0.044 µM

## Nc1ncc(-c2cc(N3CCOC3=O)nc(N3CCOCC3)n2)c(C(F)(F)F)n1
[1]
  IC50: > 9.1 µM
cells
  IC50: 0.137 µM

## C[C@H]1COC(=O)N1c1nc(-c2cnc(N)cc2C(F)(F)F)cc(N2CCOCC2)n1
[3]
  Kp at 5 min: 0.11
cells
  IC50: 1.76 µM
[6]
  Kp at 1 h: 0.11

## Nc1cc(C(F)(F)F)c(-c2cc(N3CCOC[C@H]3CO)nc(N3CCOCC3)n2)cn1
[3]
  Kp at 5 min: 0.31
cells
  IC50: 8.02 µM
[6]
  Kp at 1 h: 0.21

## Nc1cc(C(F)(F)F)c(-c2cc(N3CCOCC3)nc(N3CCOCC3)c2)cn1
Tubulin (Homo sapiens) [4]
  Activity: > 12%
Tubulin (Homo sapiens) [5]
  Activity: 6%
cells
  IC50: 2.83 µM
[7]
  IC50: > 9.1 µM

## Nc1ncc(-c2cc(N3CCOCC3)nc(N3C(=O)OC[C@@H]3CO)n2)c(C(F)(F)F)n1
[1]
  IC50: 3.88 µM
cells
  IC50: 0.063 µM

## Nc1cc(C(F)(F)F)c(-c2cc(N3CCNC3=O)nc(N3CCOCC3)n2)cn1
cells
  IC50: 0.431 µM
[2]
  logD: 2.6

## Nc1ncc(-c2cc(N3CCCOC3=O)nc(N3CCOCC3)n2)c(C(F)(F)F)n1
cells
  IC50: 0.152 µM

## C[C@H](O)[C@@H]1COC(=O)N1c1nc(-c2cnc(N)nc2C(F)(F)F)cc(N2CCOCC2)n1
[1]
  IC50: 1.34 µM
cells
  IC50: 0.083 µM

## Nc1ncc(-c2cc(N3CCOCC3)nc(N3CCOCC3)n2)c(=O)[nH]1
Tubulin (Homo sapiens) [4]
  Activity: < 2%
Tubulin (Homo sapiens) [5]
  Activity: < 2%
cells
  IC50: 0.481 µM
[7]
  IC50: 0.44 µM

## Nc1ncc(-c2cc(N3CCOCC3)nc(N3C[C@@H](CO)OC3=O)n2)c(C(F)(F)F)n1
[1]
  IC50: > 9.1 µM
cells
  IC50: 0.101 µM

## CNC(=O)N(C)c1cc(-c2cnc(N)cc2C(F)(F)F)nc(N2CCOCC2)n1
[3]
  Kp at 5 min: 1.1
cells
  IC50: 1.3 µM
[6]
  Kp at 1 h: 0.86

## C[C@H]1COC(=O)N1c1nc(-c2cnc(N)nc2C(F)(F)F)cc(N2CCOCC2)n1
[8]
  concentration at 5 min: 1640 nM
[9]
  half-life: 1.2 h
[3]
  Kp at 5 min: 1.11
[10]
  hepatic extraction ratio at 1 h: 0.54
[11]
  Vdss: 4.4 L/kg
[1]
  IC50: 2.88 µM
[12]
  concentration at 1 h: 616 nM
cells
  IC50: 0.028 µM
[13]
  hepatic extraction ratio at 1 h: 0.67
[14]
  AUC: 0.762 µM·h
[15]
  Ct: 1813 pmol/g
[16]
  bioavailability: 46%
[6]
  Kp at 1 h: 0.9
[17]
  hepatic extraction ratio at 1 h: 0.27
[18]
  Ct: 553 pmol/g

## CC1(C)OC(=O)N(c2nc(-c3cnc(N)nc3C(F)(F)F)cc(N3CCOCC3)n2)[C@H]1CO
cells
  IC50: 0.081 µM

## Nc1cc(C(F)(F)F)c(-c2cc(NC(CO)Cc3ccccc3)nc(N3CCOCC3)n2)cn1 (racemic)
[3]
  Kp at 5 min: 1.2
cells
  IC50: 9.02 µM
[6]
  Kp at 1 h: 0.93

## Nc1cc(C(F)(F)F)c(-c2cc(N3CCOC(c4ccccc4)C3)nc(N3CCOCC3)n2)cn1 (racemic)
[3]
  Kp at 5 min: 4.89
cells
  IC50: 2.77 µM
[6]
  Kp at 1 h: 3.73

## Nc1ncc(-c2cc(N3CCOCC3)nc(N3C(=O)OC[C@H]3CO)n2)c(C(F)(F)F)n1
[1]
  IC50: 5.94 µM
cells
  IC50: 0.18 µM

## Nc1ncc(-c2cc(N3CCOCC3)nc(N3CCOCC3)n2)c(C(F)(F)F)n1
Tubulin (Homo sapiens) [4]
  Activity: > 12%
[1]
  IC50: 2.07 µM
Tubulin (Homo sapiens) [5]
  Activity: > 12%
cells
  IC50: 0.191 µM
[7]
  IC50: 6.31 µM

## C[C@H]1[C@@H](CO)OC(=O)N1c1nc(-c2cnc(N)nc2C(F)(F)F)cc(N2CCOCC2)n1
[1]
  IC50: 1.72 µM
cells
  IC50: 0.03 µM

## C[C@H]1OC(=O)N(c2nc(-c3cnc(N)nc3C(F)(F)F)cc(N3CCOCC3)n2)[C@H]1CN1CC[S+]([O-])CC1
cells
  IC50: > 10 µM

## Nc1cc(C(F)(F)F)c(-c2cc(N3CCN(c4ccccc4)C3=O)nc(N3CCOCC3)n2)cn1
Tubulin (Homo sapiens) [4]
  Activity: < 2%
[1]
  IC50: 6.2 µM
Tubulin (Homo sapiens) [5]
  Activity: < 2%
cells
  IC50: 1.47 µM

## C[C@H]1[C@H](CO)OC(=O)N1c1nc(-c2cnc(N)nc2C(F)(F)F)cc(N2CCOCC2)n1
[1]
  IC50: 5.11 µM
cells
  IC50: 0.063 µM

## C[C@H]1OC(=O)N(c2nc(-c3cnc(N)nc3C(F)(F)F)cc(N3CCOCC3)n2)[C@H]1CC#N
[1]
  IC50: 3.94 µM
cells
  IC50: 0.1 µM

## C[C@@H]1OC(=O)N(c2nc(-c3cnc(N)nc3C(F)(F)F)cc(N3CCOCC3)n2)[C@H]1CO
[9]
  half-life: 5.2 h
[10]
  hepatic extraction ratio at 1 h: 0.78
[11]
  Vdss: 3.9 L/kg
[1]
  IC50: 2.58 µM
cells
  IC50: 0.037 µM
[13]
  hepatic extraction ratio at 1 h: 0.49
[14]
  AUC: 0.708 µM·h
[16]
  bioavailability: 23%

## Nc1ncc(-c2cc(N3CCOCC3)nc(N3C(=O)O[C@@H]4COC[C@@H]43)n2)c(C(F)(F)F)n1
[1]
  IC50: 2 µM
cells
  IC50: 0.061 µM

## Nc1cc(C(F)(F)F)c(-c2cc(N3CCS(=O)(=O)CC3)nc(N3CCOCC3)n2)cn1
Tubulin (Homo sapiens) [4]
  Activity: < 2%
[1]
  IC50: 9.1 µM and > 9.1 µM
Tubulin (Homo sapiens) [5]
  Activity: < 2%
cells
  IC50: 5.22 µM
[7]
  IC50: > 9.1 µM

## N#Cc1cc(N)ncc1-c1cc(N2CCOC(CCO)C2)nc(N2CCOCC2)n1 (racemic)
[3]
  Kp at 5 min: 0.2
cells
  IC50: 2.52 µM
[6]
  Kp at 1 h: 0.12

## Nc1cc(C(F)(F)F)c(-c2cc(N3CCCCC3=O)nc(N3CCOCC3)n2)cn1
Tubulin (Homo sapiens) [4]
  Activity: < 2%
[1]
  IC50: 5.06 µM
Tubulin (Homo sapiens) [5]
  Activity: < 2%
cells
  IC50: 1.04 µM

## C[C@]1(CO)COC(=O)N1c1nc(-c2cnc(N)nc2C(F)(F)F)cc(N2CCOCC2)n1
[1]
  IC50: 3.61 µM
cells
  IC50: 0.172 µM
